Source: patent publication US20250129334A1, “LINEAGE SPECIFICATION DURING STEM CELL TRANSITION” (Amniotics AB, priority 2021, published 2025)

Legend:
HE cells [1] = test: Single HE cell clone assay on OP9-DL1 stroma; assay type: cell-based, human; conditions: day 14; total of 552 single cells per condition
Description: Sorted HE (40,000), EHT (30,000) and HSC-like (5-20,000) cells were plated onto Matrigel (16 μg/cm2, Corning)-coated 96-well flat bottom plates in HE medium with 1% penicillin-streptomycin and kept in a humidified incubator at 37° C., 5% C02, 4% 02 overnight. The following day (day 0), wells were washed twice with PBS and fresh HE medium was added, together with 2-DG (1 mM), UK5099 (10 μM), DCA (3 mM or 10 mM), TSA (60 nM), TCP (300 nM), ACSS2i (5 μM), C646 (10 μM), CP-640186 (5 μM) or Atorvastatin (0.5 μM), where indicated. Media was changed and drugs were added every 2 days and cells were kept in a humidified incubator at 37° C., 5% CO2, 20% O2 for 6-7 days. Pictures were taken using an Olympus IX70 microscope equipped with a CellSens DP72 camera and CellSens Standard 1.6 software (Olympus). For single cell subcultures, single HE cells were directly sorted with a BD FACSAriaIII onto OP9-DL1 stroma in flat-bottom 96-well plates with 120 μl OP9 medium (OptiMEM medium with Glutamax (Invitrogen) with 10% FCS, 1% penicillin-streptomycin solution (Thermo Fisher Scientific) and 1% 2-mercaptoethanol (Invitrogen)) with SCF, IL-6, IL-11, IGF1 and EPO, and with or without 10 μM UK, or 3 mM or 10 mM DCA. […] At day 14, the wells were collected and scored for GPA+ clones by flow cytometry, using a BD LSRII.

HE cells [2] = test: HE subculture with metabolic regulators, flow cytometry of hematopoietic output; assay type: cell-based, human
Description: The RB9-CB1 human iPSC line (Woods, N.-B. et al. Brief report: efficient generation of hematopoietic precursors and progenitors from human pluripotent stem cell lines. Stem Cells 29, 1158-1164 (2011)) was co-cultured with mouse embryonic fibroblasts (MEFs, Millipore), passaged every six days and processed to form embryoid bodies (EBs) as described previously (Guibentif, C. et al. Single-Cell Analysis Identifies Distinct Stages of Human Endothelial to-Hematopoietic Transition. Cell Reports 19, 10-19 (2017)). The differentiation protocol used in this study was previously described (Ditadi, A. & Sturgeon, C. M. Directed differentiation of definitive hemogenic endothelium and hematopoietic progenitors from human pluripotent stem cells. Methods 101, 65-72 (2016)), however, small modifications were made to induce both primitive and definitive hematopoiesis, as indicated below and in FIG. 6, a. Newly-formed EBs were first kept in SFD medium supplemented with 1 ng/ml Activin A (on days 0-2) and 3 μM CHIR99021 (on day 2 only). At day 3, media was switched to “Day 3-SP34” medium supplemented with 1 ng/ml Activin A (on day 3 only) and 3 μM CHIR99021 (on day 3 only) until day 6. On day 6, media was replaced by “Day 6-SP34” medium, until day 8. In some experiments where indicated, to obtain a higher yield of HSC-like cells, EBs were kept until day 10: in this case, EBs were plated onto Matrigel (8 μg/cm2, Corning)-coated dishes on day 8 and kept until day 10. Media was changed every day, except on days 5 and 7. On day 8 or 10 (as indicated), EBs were singularized with 5-6 rounds of 5-minute incubations with TryPLE Express (Thermo Fisher Scientific). CD34^+ cells were selected using the human CD34 MicroBead kit (Miltenyi Biotec) and stained with CD34-FITC, CD73-PE, VECad-PerCPCy5.5, CD38-PC7, CD184-APC, CD45-AF700, CD43-APCH7, GPA-eF450, CD90-BV605 and the viability marker 7AAD in order to sort HE (CD34^+CD43^−CXCR4^−CD73^−CD90^+VECad^+), EHT (CD34^+CD43^intCXCR4^−CD73^−CD90^+VECad^+) and HSC-like (CD34^+CD43^+CD90^+CD38^−) cells, according to previously described markers (Guibentif, C. et al. Single-Cell Analysis Identifies Distinct Stages of Human Endothelial to-Hematopoietic Transition. Cell Reports 19, 10-19 (2017); Ditadi, A. et al. Human definitive haemogenic endothelium and arterial vascular endothelium represent distinct lineages. Nat Cell Biol 17, 580-591 (2015); and Choi, K.-D. et al. Identification of the Hemogenic Endothelial Progenitor and Its Direct Precursor in Human Pluripotent Stem Cell Differentiation Cultures. Cell Reports 2, 553-567 (2012)).
Sorted HE (40,000), EHT (30,000) and HSC-like (5-20,000) cells were plated onto Matrigel (16 μg/cm2, Corning)-coated 96-well flat bottom plates in HE medium with 1% penicillin-streptomycin and kept in a humidified incubator at 37° C., 5% C02, 4% 02 overnight. The following day (day 0), wells were washed twice with PBS and fresh HE medium was added, together with 2-DG (1 mM), UK5099 (10 μM), DCA (3 mM or 10 mM), TSA (60 nM), TCP (300 nM), ACSS2i (5 μM), C646 (10 μM), CP-640186 (5 μM) or Atorvastatin (0.5 μM), where indicated. Media was changed and drugs were added every 2 days and cells were kept in a humidified incubator at 37° C., 5% CO2, 20% O2 for 6-7 days. Pictures were taken using an Olympus IX70 microscope equipped with a CellSens DP72 camera and CellSens Standard 1.6 software (Olympus). For single cell subcultures, single HE cells were directly sorted with a BD FACSAriaIII onto OP9-DL1 stroma in flat-bottom 96-well plates with 120 μl OP9 medium (OptiMEM medium with Glutamax (Invitrogen) with 10% FCS, 1% penicillin-streptomycin solution (Thermo Fisher Scientific) and 1% 2-mercaptoethanol (Invitrogen)) with SCF, IL-6, IL-11, IGF1 and EPO, and with or without 10 μM UK, or 3 mM or 10 mM DCA. The cells were kept in a humidified incubator at 37° C., 5% CO2, 4% O2 and media was replaced every 4 days. […]

Row | SMILES | GPA+ clones (HE cells [1]) [clones] | EdU incorporation (proliferation) (HE cells [2]; 24 h pulse, days 1 and 2 of subculture, UK5099 10 μM, DCA 3 mM) | frequency of HSC-like cells deriving from HE (HE cells [2]; 3 days subculture, UK5099 10 μM, DCA 3 mM) | proliferation of CD45+ cells deriving from HE (HE cells [2]; CTV, UK5099 10 μM, DCA 3 mM) | proliferation of the GPA+ population deriving from HE (HE cells [2]; CTV, day 3, UK5099 10 μM, DCA 3 mM) | CD43+GPA+ cell output (HE cells [2]; day 3 of HE subculture, UK5099 10 μM, 1-AA 4 mM, DCA 3 mM, vs control) | levels of total CD43+ cells (HE cells [2]; day 6, UK5099 10 μM, 1-AA 4 mM) | decrease in CD43+CD45+ population (HE cells [2]; day 6, deriving from HE, UK5099 10 μM) [fold] | decrease in CD43+GPA+ cells (HE cells [2]; day 6 of HE subculture, DCA 3 mM) [%] | increase in CD43+CD45+ cells / cell output (HE cells [2]; day 6 of subculture, deriving from HE, DCA 3 mM or shRNA) [%]
1 | N#CC(=Cc1cn(-c2ccccc2)c2ccccc12)C(=O)O [UK5099, 2-Cyano-3-(1-phenyl-1H-indol-3-yl)-2-propenoic acid] | 12 | no differences in proliferation | did not have an effect | did not have an effect | did not observe any differences | striking increase | unchanged | 2 |  | 
2 | O=C(O)C(Cl)Cl [DCA, dichloroacetate] | 7 |  |  |  |  |  |  |  | 50 | 80
